Measured values reported in PubChem BioAssay AID1259352.

test system: C. elegans N2 L1 growth, INVAPP movement imaging, 5 d; assay: nematode growth block, anthelmintic potency – whole organism, N2 L1 worms, INVAPP movement imaging, dose response (AID 1259352)

Structure (SMILES) | EC50
CNc1nc(NCCOc2ccccc2)c2sccc2n1 | 82 µM
CNc1nc(NCCOc2ccccc2Cl)c2sccc2n1 | 11 µM
COCCNc1nc(NCCOc2ccccc2Cl)c2sccc2n1 | 87 µM
COc1ccccc1CNc1nc(NCCOc2ccccc2Cl)c2sccc2n1 | 7 µM
